For series [1], the system named is HepG2. Put plainly: Antiproliferative activity against human HepG2 cells. In kind it is functional, cell-based.
The subject of series [2] is HCT-116. As to the kind of experiment: Antiproliferative activity against human HCT-116 cells incubated for 48 hrs by SRB assay. The note with it: HCT-116, 48 h. In kind it is functional, cell-based.
Series [3] concerns A2780. As to the kind of experiment: Antiproliferative activity against human A2780 cells incubated for 48 hrs by SRB assay. The format is functional, cell-based. The note with it: A2780, 48 h.
Series [4] relates to HepG2. As to the kind of experiment: Antiproliferative activity against human HepG2 cells incubated for 48 hrs by SRB assay. In kind it is functional, cell-based. The note with it: HepG2, 48 h.
Series [5] in a line: Inhibition of Aurora B (unknown origin) using Ulight-PLK (Ser137) as substrate incubated for 60 mins by FRET-based Lance Ultra Kinase assay. Also on record: species or system Homo sapiens.
The subject of series [6] is MCF7. As to the kind of experiment: Antiproliferative activity against human MCF7 cells incubated for 72 hrs by alamar blue cell viability assay. The format is functional, cell-based. The note with it: MCF7, 72 h.
Series [7] deals with MDA-MB-231. Put plainly: Antiproliferative activity against human MDA-MB-231 cells incubated for 72 hrs by alamar blue cell viability assay. The format is functional, cell-based. Particulars: MDA-MB-231, 72 h.
The subject of series [8] is SK-OV-3. As to the kind of experiment: Antiproliferative activity against human SK-OV-3 cells incubated for 72 hrs by alamar blue cell viability assay. In kind it is functional, cell-based. Particulars: SK-OV-3, 72 h.
Series [9] has as its system A-375. Put plainly: Antiproliferative activity against human A-375 cells incubated for 72 hrs by alamar blue cell viability assay. The format is functional, cell-based. Particulars: A-375, 72 h.
Series [10] concerns A549. As to the kind of experiment: Antiproliferative activity against human A549 cells incubated for 72 hrs by alamar blue cell viability assay. The format is functional, cell-based. The note with it: A549, 72 h.
The nature of series [11]: Oral bioavailability in mouse at 10 mg/kg. The format is ADME, organism-based. The note with it: in vivo.
The target in series [12] is T1, Aurora kinase A (Homo sapiens, UniProt O14965).
T1 sequence (O14965 whole entry): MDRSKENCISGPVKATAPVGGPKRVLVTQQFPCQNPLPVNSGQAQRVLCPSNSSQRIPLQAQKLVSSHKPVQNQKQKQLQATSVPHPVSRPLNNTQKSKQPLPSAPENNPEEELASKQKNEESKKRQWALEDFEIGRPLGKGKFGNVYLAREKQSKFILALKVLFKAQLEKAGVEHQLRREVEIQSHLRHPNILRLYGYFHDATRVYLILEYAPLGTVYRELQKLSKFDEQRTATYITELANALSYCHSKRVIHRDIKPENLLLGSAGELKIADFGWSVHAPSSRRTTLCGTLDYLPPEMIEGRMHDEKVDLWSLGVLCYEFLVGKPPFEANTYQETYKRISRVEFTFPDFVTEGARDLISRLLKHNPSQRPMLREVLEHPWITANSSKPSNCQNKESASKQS
As to the kind of experiment: Inhibition of N-terminal GST tagged Aurora A (unknown origin) expressed in recombinant baculovirus-infected Sf9 cells using tetra(LRRWSLG) as substrate preincubated for 15 mins followed by the addition of substrate for 90 mins in the presence of ATP by Kinase-Glo Plus reagent based luminescence assay.

Series [13] concerns HCT-116. Put plainly: Antiproliferative activity against human HCT-116 cells by MTT assay.
Series [14] has as its system A549. As to the kind of experiment: Antiproliferative activity against human A549 cells incubated for 72 hrs by MTT assay. In kind it is functional, cell-based. The note with it: A549, 72 h.
In series [15] the target is T1, Aurora kinase A. Put plainly: Inhibition of human Aurora A using LeuArgArgAlaSerLeuGly as substrate.
Series [16] concerns the target T1, Aurora kinase A. Put plainly: Inhibition of Aurora A (unknown origin) using recombinant Lats2-N-ter as substrate incubated in the presence of ATP.
In series [17] the test system is HCT-116. As to the kind of experiment: Anticancer activity against human HCT-116 cells assessed as cell growth inhibition measured after 7 days by crystal violet staining based clonogenic long-term survival assay. In kind it is functional. The note with it: HCT-116, 168 h, time 7 day.
Series [18] deals with T2, Aurora kinase A (Homo sapiens) (UniProt O14965).
T2 sequence (whole entry): T1 sequence (O14965 whole entry)
As to the kind of experiment: Inhibition of Aurora kinase A (unknown origin) using LeuArgArgAlaSerLeuGly as substrate at 10 uM incubated in presence of ATP relative to control.

SMILES strings stand for the structures. In brackets after ≈: the same amount, converted by molar mass.

The record followed here is ChEMBL document CHEMBL5096182, “Aurora kinase inhibitors as potential anticancer agents: Recent advances” (Eur J Med Chem, 2021).

`Cc1c(-c2cc(-c3cn(-c4ccccc4)nc3-c3nnn(-c4ccc(Br)cc4)c3C)c(C#N)c(N)n2)nnn1-c1ccc(Br)cc1` gave an IC50 in series [1] of 0.64 µg/mL (≈ 0.873 µM).
Consider `NC1=C(C(=O)Nc2ccc(-c3nc4ccccc4[nH]3)cc2)C(c2ccc([N+](=O)[O-])cc2)N2C=CSC2N1` (stereo unspecified), for which the IC50 in series [2] was 1320 nM; in [3], 3500 nM; in [4] it was 2340 nM.
In the case of `COc1cccc2c1C(=O)c1c(O)c3c(c(O)c1C2=O)C[C@@](O)(C(=O)CO)C[C@@H]3O[C@H]1C[C@H](N)[C@H](O)[C@H](C)O1` [DOXORUBICIN], the IC50 in series [1] turned out to be 3.56 µg/mL (≈ 6.55 µM).
Regarding `CN1CCN(c2nc(Nc3ccc(S(N)(=O)=O)cc3)ncc2F)Cc2ccc(F)cc21`, the IC50 in series [5] amounted to 8 nM; in [6], 570 nM; in series [7], 420 nM; in series [8], 690 nM; in series [9] it was 3970 nM; in series [10], 1530 nM. Also, in [11], the bioavailability came out at 73%.
Turning to `COc1cc2ncnc(NCCc3ccc(NC(=O)Nc4ccccc4)cc3)c2cc1OC`, the IC50 in series [12] worked out at 25 nM; in series [13] it was 23 nM.
Take `CN1CCN(c2ccc(Nc3ncc(F)c(N4CCN(C)c5cc(F)ccc5C4)n3)cc2)CC1`: in series [5], the IC50 was found to be 7 nM.
Still for that read-out and setting: the value for `CC(=O)N1CCN(c2ccc(Nc3ncc(F)c(N4CCN(C)c5cc(F)ccc5C4)n3)cc2)CC1` was 9 nM.
With `COc1ccccc1C1C(C(=O)Nc2ccc(-c3nc4ccccc4[nH]3)cc2)=C(N)NC2SC=CN21` (stereo unspecified), the values for the IC50 in series [2], in [3] and in series [4] were 1200 nM, 3100 nM and 2110 nM, respectively.
Turning to `O=C(N/N=C/c1coc2ccccc2c1=O)c1ccc(F)cc1`, the IC50 in series [14] and in series [15] was 1140 nM in each case.
With `Cc1c(-c2cc(-c3cn(-c4ccccc4)nc3-c3nnn(-c4cccc([N+](=O)[O-])c4)c3C)c(C#N)c(N)n2)nnn1-c1ccc(Br)cc1`, in series [1], the IC50 worked out at 1.08 µg/mL (≈ 1.54 µM).
Same read-out and setting: the value for `COc1ccc(-c2cc(-c3nnn(-c4ccc(Br)cc4)c3C)nc(N)c2C#N)cc1` was 2.34 µg/mL (≈ 5.07 µM).
Regarding `C=CCn1c(C)nc2ccc(Nc3nc(N4CCN(C)CC4)nc4ccccc34)cc21`, the IC50 in series [16] came out at 35 nM.
`COc1ccc(-c2cc(-c3ccccc3O)nc(N)n2)c(OC)c1`: in [17], the 50% growth inhibitory concentration (GI50) was found to be 1450 nM. In addition, the inhibition in series [18] is 95%.
